Data as given in publication PMC4116524, “A virtual screen identified C96 as a novel inhibitor of phosphatidylinositol 3-kinase that displays potent preclinical activity against multiple myeloma in vitro and in vivo” (Oncotarget, 2014).
Values joined by “and” are separate entries in the source; they are usually repeats but may differ in a detail not shown here. Equal entries are not always repeated.

Columns and labels:
Format in all cases: cell-based
[1] = test system: c-Src phosphorylation in LP1 and JJN3 cells; experiment: c-Src phosphorylation, immunoblotting; conditions: increasing concentrations, 24 hrs
Description: To elucidate this specificity, we first evaluated its effects on IGF-1R because IGF-1R as a receptor tyrosine kinase activates PI3K in the presence of IGF-1. To exclude the potential effects of C96 on IGF-1 signaling, LP1 and JJN3 cells were starved overnight followed by C96 or S14161 treatment for 2 hrs, and IGF-1 stimulation for 15 min. As expected, IGF-1 triggered AKT phosphorylation but it was suppressed by both C96 and the proven PI3K inhibitor S14161 without affecting total AKT expression (Figure 3A). […] Next, we evaluated other kinases including non-receptor kinase c-Src and a PI3K parallel kinase ERK which transduces external cellular signals. Both LP1 and JJN3 cells were treated with C96 at increasing concentrations that inhibited AKT and mTOR activation (Figure 2C).
Figure 3 C96 inhibits AKT but not IGF-1R, ERK or c-Src kinase activation (A) LP1 and JJN3 cells were starved overnight, then treated with 100 (μM of C96 or S14161 for 2 hrs, followed by IGF-1 (100 ng/mL) for 15 min. After incubation, cells were harvested and the expression of p-AKT, p-IGF-1R, total AKT (T-AKT), and IGF-1R proteins were detected by immunoblotting. (B) LP1 and JJN3 were treated with C96 at indicated concentrations for 24 hrs followed by immunoblotting assay for the expression of p-Src, c-Src, p-ERK, and ERK. GAPDH was used as a loading control. […]

[2] = test system: KMS11 cells; experiment: Flow cytometric analysis of apoptosis (Annexin V-FITC/PI); conditions: KMS11, C96 10 μM, 24 hrs; two quadrant values
Description: (§1) MM cells treaded with C96 at concentrations from 0 to 20 μM, 24 hrs later, cells were stained with Annexin V-FITC and PI according to the manufacturer's instruction (Sigma, St Louis, MO). Apoptotic cells were measured on a flow cytometer (FACSCalibur, Becton Dickinson) as reported as previously.

[3] = test system: OPM2 cells; experiment: as above; conditions: OPM2, C96 10 μM, 24 hrs; two quadrant values
Description: as §1

[4] = test system: RPMI-8226 (8226) cells; experiment: as above; conditions: 8226, C96 10 μM, 24 hrs; two quadrant values
Description: as §1

[5] = test system: cleavage of PARP and caspase-3 in LP1, OPM2 and JJN3 cells; experiment: Apoptotic signaling, immunoblotting of PARP and caspase-3; conditions: 0-20 μM or 10 μM for 3-12 hrs, time- and concentration-dependent
Description: Because PI3K/AKT signaling is critical in modulating MM cell proliferation and survival, while interference with this pathway will lead to cell death and regression of MM tumors, we next asked whether C96 could induce MM cell apoptosis and inhibited MM cell proliferation. […] Next, we measured the induction of apoptosis by C96 in MM cell lines. Apoptotic cells are featured with inside-out expression of phosphatidylserine which is specifically identified by Annexin V, a cellular protein in the annexin group. Therefore, to measure the apoptotic level, C96-treated cells were stained with Annexin V-FITC and propidium iodide followed by flow cytometry analysis. […] For example, less apoptotic cells were induced by C96 in KMS11 cells in the Annexin V staining assay (Figure 5), the cleavage level of PARP in this cell line was also lower than that seen in other cell lines, such as OPM2 (Figure 6A). We next examined the apoptotic signaling pathway in the treatment with C96 with increasing exposure periods or concentrations. […]
Cells were treated with or without C96 for 24 hrs before being applied to lysate preparation in a lysis buffer (50 mM Tris-HCI, pH 7.4, 1% NP-40, 0.5% Na-deoxycholate, and 0.1% SDS, 150 mM NaCl, 2 mM EDTA, 2 mM Na3VO4, and 5 mM NaF). […] All immunoblotting signals were further analyzed with Quality One Quality One software (Bio-Rad, Berkeley, CA, USA).

SMILES: O=C1NC(=O)C(=CC=Cc2cccs2)C(=O)N1 [C96, 5-(3-(2-thienyl)-2-propen-1-ylidene)-2,4,6(1H,3H,5H)-pyrimidinetrione]
- phosphorylation level of c-Src [1]: did not decrease
- Annexin V/PI flow cytometry quadrant percentages [2]: 4.28% and 1.91%
- Annexin V/PI flow cytometry quadrant percentages [3]: 42.12% and 21.89%
- Annexin V/PI flow cytometry quadrant percentages [4]: 13.50% and 15.66%
- cleavage of PARP and caspase-3 [5]: induced cleavage of PARP and caspase-3
